{"source": "patent US20010053796A1", "about": "“Delta-aminolevulinic acid for prevention and treatment of infection microorganisms and parasite” (priority 2000, published 2001)", "key": {"[1]": {"test_system": "Scutica", "assay": "Extinction effect for Scutica in vitro", "format": "cell-based", "procedure": "Scutica used in this experiment was taken from epidermal mucus of infected flatfish and suspended in HBSS. The suspension was kept at room temperature for 30 min and centrifuged at 800 rpm for 10 min. The supernatant was removed. The pellet was suspended in MEM-10 (minimum essential medium, 10% FBS, streptomycine, penicilin) and kept for 30 min, and then centrifuged in the same manner as above. The supernatant was removed and left imagoes was gained and made into imagoes suspension with certain number of imagoes by counting with the blood counting machine. The imagoes suspension was subcultured in vitro and inoculated to prepared FHM cell of certain number (2.5×10^5 cells/mL) and then cultured at 17° C. Before carrying out the experiment, by measuring the extinction effect for Scutica according to the concentration of δ-aminolevulinic acid and reaction time, optimum δ-aminolevulinic acid concentration and treatment time was examined for Scutica extermination. The Scutica culture solution cultured in FHM cell line was centrifuged at 3000 rpm for 5 min. The supernatant was removed and was added to PBS. It was washed 3 times to use for the experiment. 1.0 M δ-aminolevulinic acid solution made from sterilized 3rd distilled water was diluted by 2-fold up to 1000-fold (1.0 mM). Scutica was added to each well of 96-well microplate at an amount of 50 μL. Then, δ-aminolevulinic acid solution diluted by 2 steps were added and cultured for 120 min while the viability of Scutica was monitored. During the culture for 120 min, extinction time was measured in 10 min intervals, at each concentration. Between each inoculation, they were stirred for 5 min and were kept for 5 min. after reaction, 1% trypan blue which is staining solution for organism was added to each wells at an amount of 100 μL and mixed. In cultured Scutica with the diluted solution of δ-aminolevulinic acid, the number of parasites was counted by the blood counting machine, according to time. […] Through the 60 min-treatment, more than 50% of Scutica were extinct. At the actual concentration of 2 mM, about 50% of Scutica was extinct through 1 hour-treatment."}, "[2]": {"test_system": "marine birnavirus (MABV)", "assay": "Change of virus infection value (TCID50) in culture cells", "format": "cell-based", "details": "for Infection value by MABV: 8 mM", "source_text": "In this experiment, change of infection value by virus according to δ-aminolevulinic acid treatment was examined by TCID50 using fish cell line for marine birnavirus (MABV) which infects major marine cultivating fish species, Bastardhalibut, Pagrus major and Sebastes schlegeli and acts as a cause for mass mortality. The virus used in this experiment was isolated from Bastardhalibut of a fish farm nearby Yeosu. Virus infection value was checked in CHSE-214 cell and then used as experimental virus solution. Virus incubation solution and δ-aminolevulinic acid diluted solution were combined with same amount (8 mL) and reacted for 30 min. and then, inoculated to culture cell and incubated at 20° C. Temporary change of virus infection value was compared with that of HBSS reaction virus solution (control)."}}, "note": "Read-outs that look alike come from different tables or passages of the source. Marks after values point to notes of the source that are not given here."}
{"smiles": "NCC(=O)CCC(=O)O", "note": "[δ-aminolevulinic acid]", "values": [{"measurement": "viability at 30000 µM", "setting": "[1]; read-out: Viability (%) of Scutica, 30 mM, reaction time 60", "result": 0, "unit": "%"}, {"measurement": "viability at 30000 µM", "setting": "[1]; read-out: Viability (%) of Scutica, 30 mM, reaction time 70", "result": 0, "unit": "%"}, {"measurement": "viability at 30000 µM", "setting": "[1]; read-out: Viability (%) of Scutica, 30 mM, reaction time 80", "result": 0, "unit": "%"}, {"measurement": "viability at 30000 µM", "setting": "[1]; read-out: Viability (%) of Scutica, 30 mM, reaction time 90", "result": 0, "unit": "%"}, {"measurement": "viability at 30000 µM", "setting": "[1]; read-out: Viability (%) of Scutica, 30 mM, reaction time 110", "result": 0, "unit": "%"}, {"measurement": "viability at 30000 µM", "setting": "[1]; read-out: Viability (%) of Scutica, 30 mM, reaction time 120", "result": 0, "unit": "%"}, {"measurement": "viability at 60000 µM", "setting": "[1]; read-out: Viability (%) of Scutica, 60 mM, reaction time 10", "result": 0, "unit": "%"}, {"measurement": "viability at 60000 µM", "setting": "[1]; read-out: Viability (%) of Scutica, 60 mM, reaction time 20", "result": 0, "unit": "%"}, {"measurement": "viability at 60000 µM", "setting": "[1]; read-out: Viability (%) of Scutica, 60 mM, reaction time 30", "result": 0, "unit": "%"}, {"measurement": "viability at 60000 µM", "setting": "[1]; read-out: Viability (%) of Scutica, 60 mM, reaction time 40", "result": 0, "unit": "%"}, {"measurement": "viability at 60000 µM", "setting": "[1]; read-out: Viability (%) of Scutica, 60 mM, reaction time 50", "result": 0, "unit": "%"}, {"measurement": "viability at 60000 µM", "setting": "[1]; read-out: Viability (%) of Scutica, 60 mM, reaction time 60", "result": 0, "unit": "%"}, {"measurement": "viability at 60000 µM", "setting": "[1]; read-out: Viability (%) of Scutica, 60 mM, reaction time 70", "result": 0, "unit": "%"}, {"measurement": "viability at 60000 µM", "setting": "[1]; read-out: Viability (%) of Scutica, 60 mM, reaction time 80", "result": 0, "unit": "%"}, {"measurement": "viability at 60000 µM", "setting": "[1]; read-out: Viability (%) of Scutica, 60 mM, reaction time 90", "result": 0, "unit": "%"}, {"measurement": "viability at 60000 µM", "setting": "[1]; read-out: Viability (%) of Scutica, 60 mM, reaction time 110", "result": 0, "unit": "%"}, {"measurement": "viability at 60000 µM", "setting": "[1]; read-out: Viability (%) of Scutica, 60 mM, reaction time 120", "result": 0, "unit": "%"}, {"measurement": "viability at 125000 µM", "setting": "[1]; read-out: Viability (%) of Scutica, 125 mM, reaction time 10", "result": 0, "unit": "%"}, {"measurement": "viability at 125000 µM", "setting": "[1]; read-out: Viability (%) of Scutica, 125 mM, reaction time 20", "result": 0, "unit": "%"}, {"measurement": "viability at 125000 µM", "setting": "[1]; read-out: Viability (%) of Scutica, 125 mM, reaction time 30", "result": 0, "unit": "%"}, {"measurement": "viability at 125000 µM", "setting": "[1]; read-out: Viability (%) of Scutica, 125 mM, reaction time 40", "result": 0, "unit": "%"}, {"measurement": "viability at 125000 µM", "setting": "[1]; read-out: Viability (%) of Scutica, 125 mM, reaction time 50", "result": 0, "unit": "%"}, {"measurement": "viability at 125000 µM", "setting": "[1]; read-out: Viability (%) of Scutica, 125 mM, reaction time 60", "result": 0, "unit": "%"}, {"measurement": "viability at 125000 µM", "setting": "[1]; read-out: Viability (%) of Scutica, 125 mM, reaction time 70", "result": 0, "unit": "%"}, {"measurement": "viability at 125000 µM", "setting": "[1]; read-out: Viability (%) of Scutica, 125 mM, reaction time 80", "result": 0, "unit": "%"}, {"measurement": "viability at 125000 µM", "setting": "[1]; read-out: Viability (%) of Scutica, 125 mM, reaction time 90", "result": 0, "unit": "%"}, {"measurement": "viability at 125000 µM", "setting": "[1]; read-out: Viability (%) of Scutica, 125 mM, reaction time 110", "result": 0, "unit": "%"}, {"measurement": "viability at 125000 µM", "setting": "[1]; read-out: Viability (%) of Scutica, 125 mM, reaction time 120", "result": 0, "unit": "%"}, {"measurement": "viability at 250000 µM", "setting": "[1]; read-out: Viability (%) of Scutica, 250 mM, reaction time 10", "result": 0, "unit": "%"}, {"measurement": "viability at 250000 µM", "setting": "[1]; read-out: Viability (%) of Scutica, 250 mM, reaction time 20", "result": 0, "unit": "%"}, {"measurement": "viability at 250000 µM", "setting": "[1]; read-out: Viability (%) of Scutica, 250 mM, reaction time 30", "result": 0, "unit": "%"}, {"measurement": "viability at 250000 µM", "setting": "[1]; read-out: Viability (%) of Scutica, 250 mM, reaction time 40", "result": 0, "unit": "%"}, {"measurement": "viability at 250000 µM", "setting": "[1]; read-out: Viability (%) of Scutica, 250 mM, reaction time 50", "result": 0, "unit": "%"}, {"measurement": "viability at 250000 µM", "setting": "[1]; read-out: Viability (%) of Scutica, 250 mM, reaction time 60", "result": 0, "unit": "%"}, {"measurement": "viability at 250000 µM", "setting": "[1]; read-out: Viability (%) of Scutica, 250 mM, reaction time 70", "result": 0, "unit": "%"}, {"measurement": "viability at 250000 µM", "setting": "[1]; read-out: Viability (%) of Scutica, 250 mM, reaction time 80", "result": 0, "unit": "%"}, {"measurement": "viability at 250000 µM", "setting": "[1]; read-out: Viability (%) of Scutica, 250 mM, reaction time 90", "result": 0, "unit": "%"}, {"measurement": "viability at 250000 µM", "setting": "[1]; read-out: Viability (%) of Scutica, 250 mM, reaction time 110", "result": 0, "unit": "%"}, {"measurement": "viability at 250000 µM", "setting": "[1]; read-out: Viability (%) of Scutica, 250 mM, reaction time 120", "result": 0, "unit": "%"}, {"measurement": "viability at 500000 µM", "setting": "[1]; read-out: Viability (%) of Scutica, 500 mM, reaction time 10", "result": 0, "unit": "%"}, {"measurement": "viability at 500000 µM", "setting": "[1]; read-out: Viability (%) of Scutica, 500 mM, reaction time 20", "result": 0, "unit": "%"}, {"measurement": "viability at 500000 µM", "setting": "[1]; read-out: Viability (%) of Scutica, 500 mM, reaction time 30", "result": 0, "unit": "%"}, {"measurement": "viability at 500000 µM", "setting": "[1]; read-out: Viability (%) of Scutica, 500 mM, reaction time 40", "result": 0, "unit": "%"}, {"measurement": "viability at 500000 µM", "setting": "[1]; read-out: Viability (%) of Scutica, 500 mM, reaction time 50", "result": 0, "unit": "%"}, {"measurement": "viability at 500000 µM", "setting": "[1]; read-out: Viability (%) of Scutica, 500 mM, reaction time 60", "result": 0, "unit": "%"}, {"measurement": "viability at 500000 µM", "setting": "[1]; read-out: Viability (%) of Scutica, 500 mM, reaction time 70", "result": 0, "unit": "%"}, {"measurement": "viability at 500000 µM", "setting": "[1]; read-out: Viability (%) of Scutica, 500 mM, reaction time 80", "result": 0, "unit": "%"}, {"measurement": "viability at 500000 µM", "setting": "[1]; read-out: Viability (%) of Scutica, 500 mM, reaction time 90", "result": 0, "unit": "%"}, {"measurement": "viability at 500000 µM", "setting": "[1]; read-out: Viability (%) of Scutica, 500 mM, reaction time 110", "result": 0, "unit": "%"}, {"measurement": "viability at 500000 µM", "setting": "[1]; read-out: Viability (%) of Scutica, 500 mM, reaction time 120", "result": 0, "unit": "%"}, {"measurement": "Infection value by MABV", "setting": "[2]; 0 days after inoculation", "result": "4.3* Log TCID50/mL"}, {"measurement": "Infection value by MABV", "setting": "[2]; 1 day after inoculation", "result": 3.8, "unit": "Log TCID50/mL"}, {"measurement": "Infection value by MABV", "setting": "[2]; 3 days after inoculation", "result": 3.5, "unit": "Log TCID50/mL"}, {"measurement": "Infection value by MABV", "setting": "[2]; 5 days after inoculation", "result": 2.3, "unit": "Log TCID50/mL"}, {"measurement": "Infection value by MABV", "setting": "[2]; 7 days after inoculation", "result": "<1.8", "unit": "Log TCID50/mL"}, {"measurement": "effect on MABV within culture cell system", "setting": "[2]; reacted 30 min before inoculation", "result": "inactivated"}]}
